Experimental data reported in patent US7285680B2, “β-alanine derivatives and the use thereof” (Ono Pharmaceutical Co., Ltd., priority 2002, dated 2007).

Target: human EDG-2 (Homo sapiens, UniProt Q92633)
Assay: Evaluation of EDG-2 antagonistic activity by monitoring the change of intracellular calcium ion concentration
Assay type: cell-based
Conditions: CHO cells overexpressing human EDG-2 gene; LPA final concentration 100 nM; Fura2-AM intracellular calcium; compound 1 nM to 10 μM
Method: Evaluation of EDG-2 Antagonistic Activity by Monitoring the Change of Intracellular Calcium Ion Concentration
Evaluation of EDG-2 antagonistic activity was carried out by using Chinese hamster ovary (CHO) cells which overexpressed human EDG-2 gene. Those cells were cultured with Ham's F12 medium (GIBCO BRL company No.11765-047) containing 10% FBS (fetal bovine serum), penicillin/streptomycin and blasticidin (5 μg/ml). At first in order to uptake Fura2-AM (Dojindo company No.348-05831) into the cells, cells were incubated for 60 minutes at 37 degrees in Fura2-AM (5 μM) solution [Ham's F12 medium containing 10% FBS, 20 mM HEPES buffer (pH 7.4) and 2.5 mM probenecid (Sigma company No.P-8761)]. […] Plates were set in fluorescent drug screening system (Hamamatsu photonics company, FDSS-2000) and intracellular calcium ion concentration was measured for 30 seconds with no stimulation and then solution of the compound of the present invention represented by formula (I) was added. Five minutes after adding thereto LPA (final concentration: 100 nM) was added, the increase of intracellular calcium ion concentrations before and after the addition of LPA (excitation wave length: […]; fluorescent wave length: 500 nm) were measured every 3 seconds. […]

Chain of human EDG-2 (Q92633 whole entry): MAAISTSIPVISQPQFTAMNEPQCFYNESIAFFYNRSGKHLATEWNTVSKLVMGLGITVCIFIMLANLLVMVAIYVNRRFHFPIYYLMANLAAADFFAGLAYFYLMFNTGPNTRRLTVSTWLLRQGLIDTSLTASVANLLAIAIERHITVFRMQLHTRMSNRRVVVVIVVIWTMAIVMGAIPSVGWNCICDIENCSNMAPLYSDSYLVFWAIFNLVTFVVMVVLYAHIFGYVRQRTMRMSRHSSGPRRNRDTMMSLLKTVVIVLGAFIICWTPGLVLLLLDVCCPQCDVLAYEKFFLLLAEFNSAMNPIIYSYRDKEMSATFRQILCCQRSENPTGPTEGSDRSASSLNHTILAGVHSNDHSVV

Row | Structure (SMILES) | IC50
1 | COc1ccc(OC)c(CCN(CCC(=O)O)C(=O)c2ccccc2-c2ccccc2C(=O)NCc2ccc(Cl)cc2)c1 [Example 3, 3-(N-((2-(2-((4-chlorobenzylamino)carbonyl)phenyl)phenyl)carbonyl)-N-(2-(2,5-dimethoxyphenyl)ethyl)amino)propanoic acid] | 410 nM
2 | COc1ccc(OC)c(CCN(CCC(=O)O)C(=O)c2ccccc2-c2ccccc2C(=O)NCc2cccnc2)c1 [Example 3(1), 3-(N-((2-(2-((pyridin-3-ylmethylamino)carbonyl)phenyl)phenyl)carbonyl)-N-(2-(2,5-dimethoxyphenyl)ethyl)amino)propanoic acid] | 780 nM
